# Patent US20160067208A1, “ADHESION PREVENTING AGENT” (FARNEX INCORPORATED, priority 2013, published 2016)
# Columns and labels:
# Type in all cases: physicochemical
# [1] = Viscosity of the compound itself (Gemini II, Malvern); settings: 25° C., at shear velocity of 92 1/s
# Experimental: In addition, the amphipathic compound to be used for the adhesion preventing agent of the present invention has low viscosity in itself. Specifically, the amphipathic compound to be used for the adhesion preventing agent of the present invention has a viscosity of preferably 15.0 Pa·s or less, more preferably 11.0 Pa·s or less, and further preferably 6.0 Pa·s or less as measured at 25° C. in itself. The viscosity can be measured using, for example, a viscosity and viscoelasticity measuring apparatus (Gemini II, Malvern Instruments Ltd.) at 25° C.
# The viscosity of each of the compounds described in the Examples 1-7 was measured using a viscosity/viscoelasticity measuring instrument (Gemini II, Malvern) at the temperature of 25° C.
# [2] = Shear viscosity of liquid crystal gels; settings: gel prepared by addition of water, 25° C.
# Experimental: (§1) The viscosity was measured for the gels prepared by addition of water to the compounds synthesized in Examples 1, 4, and 5. Specifically, for the gel samples obtained by mixing homogeneously according to the same procedure as in Example 9, the shear viscosity was measured at a temperature of 25° C., using a viscosity and viscoelasticity measuring apparatus (Gemini II, Malvern Instruments Ltd.; cone plate φ25, cone angle 1°).
# as §1, with “45” for “1, 4,”, “50, and C17 glycerin ester synthesized in Example 13.” for “5.”
# [3] = SAXS analysis of compound/water system (liquid crystal formation); settings: compound/water system gel, 50% by mass in water-excess condition, room temperature (25° C.)
# Source text: Whether or not a liquid crystal structure has a cubic lattice may be determined by a small-angle X-ray scattering (SAXS) method, for the purpose of confirming liquid crystal formation. First, an amphipathic compound/water system sample with a predetermined concentration can be filled into an X-ray capillary tube made of quartz, for example, and the capillary tube is sealed with an oxy-fuel burner, and subjected to SAXS assay.
# Mono-O-(5,9,13-trimethyltetradeca-4,8,12-trienoyl)glycerol synthesized in Example 1 and pure water were introduced into a mixing device at the concentration of 50% by mass of mono-O-(5,9,13-trimethyltetradeca-4,8,12-trienoyl)glycerol (in water-excess condition), and they were mixed at room temperature (25° C.) and left for 24 hours to obtain a homogeneous mixture. Then the separated water was removed. Thus, a sample of mono-O-(5,9,13-trimethyltetradeca-4,8,12-trienoyl)glycerol/water system was obtained as a white turbid to colorless transparent gel composition in appearance (it was referred to below as the gel sample).
# Subsequently, the gel sample was analyzed by small-angle x-ray scattering (SAXS). The NANO-Viewer nano-scale X-ray structure analysis equipment (Rigaku) was used for SAXS analysis, which was performed by X-ray irradiation at room temperature (25° C.), 40 kV, 50 mA, wavelength λ=0.1542 nm (Cu-Kα).
# Each of the compounds synthesized in Example 32, 33, 43, 45, 49, and 50 and water were homogeneously mixed in accordance with the same procedure as in Example 9 to obtain a sample of each compound/water system being a gel in appearance. SAXS analysis of these gel samples was performed in the same manner as in Example 9. […]
Compound,Viscosity [1] [Pa·s],liquid crystal structure (SAXS peak value ratio) [3],other results
"CC(C)=CCC/C(C)=C/CCC(C)=CCCC(=O)OCC(CO)(CO)CO (racemic) [Example 3, mono-O-(5,9,13-trimethyltetradeca-4,8,12-trienoyl)pentaerythritol]",2.5,–,–
"CC(C)=CCCC(C)=CCCC(C)=CCCC(C)=CCCCOCC(O)CO (stereo not drawn) [Example 48, mono-O-(5,9,13,17-tetramethyloctadeca-4,8,12,16-tetraenyl)glycerol]",0.16,–,–
"CC(C)=CCC/C(C)=C/CC/C(C)=C/CCC(C)=CCCC(=O)OCC(O)C(O)CO (stereo not drawn) [Example 5, mono-O-(5,9,13,17-tetramethyloctadeca-4,8,12,16-tetraenoyl)erythritol]",5.8,cubic liquid crystal that belongs to the crystallographic space group Pn3m,Viscosity ([2]; shear velocity 12 1/s): 333 Pas · sec; Viscosity ([2]; shear velocity 100.8 1/s): 17 Pas · sec
"CC(=CCCCOCC(CO)(CO)CO)CCCC(C)CCCC(C)C (stereo not drawn) [Example 56, mono-O-(5,9,13-trimethyltetradec-4-enyl)pentaerythritol]",0.98,–,–
"CC(C)=CCC/C(C)=C/CC/C(C)=C/CCC(C)=CCCCOCC(CO)(CO)CO [Example 50, mono-O-(5,9,13,17-tetramethyloctadeca-4,8,12,16-tetraenyl)pentaerythritol]",0.78,reverse hexagonal liquid crystals,Viscosity ([2]; shear velocity 10 1/s): 81 Pas · sec; Viscosity ([2]; shear velocity 105 1/s): 14 Pas · sec
"CC(C)=CCC/C(C)=C/CCC(C)=CCCCOCC(O)CO (racemic) [Example 31, mono-O-(5,9,13-trimethyltetradeca-4,8,12-trienyl)glycerol]",0.23,–,–
"CC(C)=CCC/C(C)=C/CC/C(C)=C/CCC(C)=CCCC(=O)OCC(O)CO (racemic) [Example 4, mono-O-(5,9,13,17-tetramethyloctadeca-4,8,12,16-tetraenoyl)glycerol]",0.37,reverse hexagonal liquid crystal,Viscosity ([2]; shear velocity 12 1/s): 39 Pas · sec; Viscosity ([2]; shear velocity 100.8 1/s): 1.4 Pas · sec
"CC(C)=CCC/C(C)=C/CCC(C)=CCCC(=O)OCC(O)C(O)CO (stereo not drawn) [Example 2, mono-O-(5,9,13-trimethyltetradeca-4,8,12-trienoyl)erythritol]",4.7,–,–
"CC(C)=CCC/C(C)=C/CCC(C)=CCCCOC(=O)C(O)CO (stereo not drawn) [Example 36, 5,9,13-trimethyltetradeca-4,8,12-trienyl glycerate]",0.16,–,–
"CC(C)=CCC/C(C)=C/CC/C(C)=C/CCC(C)=CCCCOCC(O)COCC(O)CO (stereo not drawn) [Example 51, mono-O-(5,9,13,17-tetramethyloctadeca-4,8,12,16-tetraenyl)diglycerol]",1.4,–,–
"CC(=CC(=O)OCC(O)CO)CCCC(C)CCCC(C)C (stereo not drawn) [Example 54, mono-O-(3,7,11-trimethyldodec-2-enoyl)glycerol]",0.45,–,–
"CC(C)=CCC/C(C)=C/CCC(C)=CCCC(=O)OCC(O)CO (stereo not drawn) [Example 1, mono-O-(5,9,13-trimethyltetradeca-4,8,12-trienoyl)glycerol]",0.26,cubic liquid crystal that belongs to the crystallographic space group Pn3m,Viscosity ([2]; shear velocity 12 1/s): 461 Pas · sec; Viscosity ([2]; shear velocity 100.8 1/s): 37 Pas · sec
"CC(C)=CCC/C(C)=C/CC/C(C)=C/CCC(C)=CCCCOCC(O)C(O)CO (stereo not drawn) [Example 49, mono-O-(5,9,13,17-tetramethyloctadeca-4,8,12,16-tetraenyl)erythritol]",–,reverse hexagonal liquid crystals,–
"CC(C)=CCC/C(C)=C/CCC(C)=CCCCOCC(O)C(O)CO (stereo not drawn) [Example 32, mono-O-(5,9,13-trimethyltetradeca-4,8,12-trienyl)erythritol]",1.2,cubic liquid crystals that belong to the crystallographic space group Pn3m,–
"CC(C)=CCC/C(C)=C/CCC(C)=CC(=O)OCC(O)CO (stereo not drawn) [Example 27, mono-O-(3,7,11-trimethyldodeca-2,6,10-trienoyl)glycerol]",3.0,–,–
"CC(C)=CCC/C(C)=C/CCC(C)=CCOCC(CO)(CO)CO (racemic) [Example 30, mono-O-(3,7,11-trimethyldodeca-2,6,10-trienyl)pentaerythritol]",1.6,–,–
"CC(C)=CCC/C(C)=C/CCC(C)=CCCCOCC(CO)(CO)CO (racemic) [Example 33, mono-O-(5,9,13-trimethyltetradeca-4,8,12-trienyl)pentaerythritol]",0.63,cubic liquid crystals that belong to the crystallographic space group Pn3m,–
"CC(C)=CCC/C(C)=C/CC/C(C)=C/CCC(C)=CCOCC(O)CO (racemic) [Example 44, mono-O-(3,7,11,15-tetramethylhexadeca-2,6,10,14-tetraenyl)glycerol]",0.26,–,–
"CC(C)=CCC/C(C)=C/CC/C(C)=C/CCC(C)=CCOCC(CO)(CO)CO (racemic) [Example 46, mono-O-(3,7,11,15-tetramethylhexadeca-2,6,10,14-tetraenyl)pentaerythritol]",2.9,–,–
"CC(=CC(=O)OCC(CO)(CO)CO)CCCC(C)CCCC(C)CCCC(C)C (stereo not drawn) [Example 55, mono-O-(3,7,11,15-tetramethylhexadec-2-enoyl)pentaerythritol]",10.6,–,–
"CC(C)=CCC/C(C)=C/CC/C(C)=C/CCC(C)=CCCC(=O)OCC(CO)(CO)CO (racemic) [Example 6, mono-O-(5,9,13,17-tetramethyloctadeca-4,8,12,16-tetraenoyl)pentaerythritol]",3.3,cubic liquid crystal that belongs to the crystallographic space group Pn3m,–
"CC(C)=CCC/C(C)=C/CC/C(C)=C/CCC(C)=CCOC(=O)C(O)CO (racemic) [Example 52, 3,7,11,15-tetramethylhexadeca-2,6,10,14-tetraenyl glycerate]",0.23,–,–
"CC(C)=CCC/C(C)=C/CC/C(C)=C/CCC(C)=CCCC(=O)OCC(O)COCC(O)CO (stereo not drawn) [Example 7, mono-O-(5,9,13,17-tetramethyloctadeca-4,8,12,16-tetraenoyl)diglycerol]",2.6,–,–
"CC(=CCCCOCC(O)CO)CCCC(C)CCCC(C)CCCC(C)C (stereo not drawn) [Example 58, mono-O-(5,9,13,17-tetramethyloctadec-4-enyl)glycerol]",0.44,–,–
"CC(C)=CCC/C(C)=C/CC/C(C)=C/CCC(C)=CCCCOC(=O)C(O)CO (racemic) [Example 53, 5,9,13,17-tetramethyloctadeca-4,8,12,16-tetraenyl glycerate]",0.21,–,–
"CC(C)=CCC/C(C)=C/CCC(C)=CCOCC(O)CO (racemic) [Example 28, mono-O-(3,7,11-trimethyldodeca-2,6,10-trienyl)glycerol]",0.20,–,–
"CC(C)=CCC/C(C)=C/CCC(C)=CCCCOCC(O)COCC(O)CO (stereo not drawn) [Example 34, mono-O-(5,9,13-trimethyltetradeca-4,8,12-trienyl)diglycerol]",0.37,–,–
"CC(=CCCC(=O)OCC(O)CO)CCCC(C)CCCC(C)C (stereo not drawn) [Example 13, mono-O-(5,9,13-trimethyltetradec-4-enoyl)glycerol]",0.48,–,Viscosity ([2]; shear velocity 10 1/s): 1878 Pas · sec; Viscosity ([2]; shear velocity 105 1/s): 166 Pas · sec
"CC(C)=CCC/C(C)=C/CC/C(C)=C/CCC(C)=CC(=O)OCC(O)CO (racemic) [Example 41, mono-O-(3,7,11,15-tetramethylhexadeca-2,6,10,14-tetraenoyl)glycerol]",3.8,–,–
"CC(C)=CCC/C(C)=C/CC/C(C)=C/CCC(C)=CC(=O)OCC(CO)(CO)CO (racemic) [Example 43, mono-O-(3,7,11,15-tetramethylhexadeca-2,6,10,14-tetraenoyl)pentaerythritol]",14,reverse hexagonal liquid crystals,–
